These results are taken from patent US20160304461A1, “QUINOLONE COMPOUND AND PHARMACEUTICAL COMPOSITION” (OTSUKA PHARMACEUTICAL CO., LTD., priority 2007, published 2016).

Broadly, the melting point is the temperature of the solid-liquid transition. Turning to `CCCOc1ccc(F)c2c(=O)c(-c3ccc(F)cc3)c(C)[nH]c12` [Example 74, 5-Fluoro-3-(4-fluorophenyl)-2-methyl-8-propoxy-1H-quinolin-4-one], the melting point was in the range of 196 to 197 °C.

Molecule `CCCOc1ccc(F)c2c(=O)c(-c3ccc(N(C)C)cc3)c(C)[nH]c12` [Example 73, 3-(4-Dimethylaminophenyl)-5-fluoro-2-methyl-8-propoxy-1H-quinolin-4-one] showed a melting point of 255 to 257 °C.

Consider `CCCOc1ccc(F)c2c(=O)c(-c3ccco3)c[nH]c12` [Example 58, 5-Fluoro-3-furan-2-yl-8-propoxy-1H-quinolin-4-one], for which the melting point fell in the range of 210 to 212 °C.

Regarding `CCCOc1ccc(F)c2c(=O)c(-c3ccco3)c(C(C)C)[nH]c12` [Example 84, 5-Fluoro-3-furan-2-yl-2-isopropyl-8-propoxy-1H-quinolin-4-one], the melting point was 113 to 114 °C.

Take `CCCOc1ccc(F)c2c(=O)c(-c3ccc(OC)cc3C)c[nH]c12` [Example 16, 5-Fluoro-3-(4-methoxy-2-methylphenyl)-8-propoxy-1H-quinolin-4-one]: the melting point was 197 to 199 °C.

`CCCOc1ccc(F)c2c(=O)c(-c3ccc(C(=O)N4CCOCC4)cc3)c[nH]c12` [Example 90, 5-Fluoro-3-[4-(morpholine-4-carbonyl)phenyl]-8-propoxy-1H-quinolin-4-one]: the melting point lay within 234 to 236 °C.

Turning to `CCCOc1ccc(F)c2c(=O)c(-c3ccc(OC)cc3OC)c(C)[nH]c12` [Example 75, 3-(2,4-Dimethoxyphenyl)-5-fluoro-2-methyl-8-propoxy-1H-quinolin-4-one], the melting point fell in the range of 100 to 101 °C.

For `CCCOc1ccc(F)c2c(=O)c(-c3ccncc3)c[nH]c12` [Example 51, 5-Fluoro-8-propoxy-3-pyridin-4-yl-1H-quinolin-4-one], the melting point is 259 to 261 °C.

Regarding `CCCOc1ccc(F)c2c(=O)c(-c3ccc(OC)c(F)c3)c[nH]c12` [Example 2, 5-Fluoro-3-(3-fluoro-4-methoxyphenyl)-8-propoxy-1H-quinolin-4-one], the melting point lay within 194 to 195 °C.

Turning to `CCCOc1ccc(F)c2c(=O)c(-c3cccs3)c(C(F)(F)F)[nH]c12` [Example 85, 5-Fluoro-8-propoxy-3-thiophen-2-yl-2-trifluoromethyl-1H-quinolin-4-one], the melting point was 149 to 150 °C.

Take `CCCOc1ccc(F)c2c(=O)c(-c3cc(OC)ccc3OC)c[nH]c12` [Example 65, 3-(2,5-Dimethoxyphenyl)-5-fluoro-8-propoxy-1H-quinolin-4-one]: the melting point was 156 to 157 °C.

Molecule `CCOc1ccc(F)c2c(=O)c(-c3ccc(OC)cc3)c[nH]c12` [Example 11, 8-Ethoxy-5-fluoro-3-(4-methoxyphenyl)-1H-quinolin-4-one] yielded a melting point of 155 to 156 °C.

`CCCOc1ccc(F)c2c(=O)c(-c3ccc(Cl)cc3Cl)c[nH]c12` [Example 10, 3-(2,4-Dichlorophenyl)-5-fluoro-8-propoxy-1H-quinolin-4-one]: the melting point is 256 to 259 °C.

`COc1ccc(-c2c[nH]c3c(OCCCNC(C)=O)ccc(F)c3c2=O)cc1` [Example 26, N-{3-[5-Fluoro-3-(4-methoxyphenyl)-4-oxo-1,4-dihydroquinolin-8-yloxy]propyl}acetamide]: the melting point lay within 229 to 231 °C.

On to `CCCOc1ccc(F)c2c(=O)c(-c3ccc(OC(F)(F)F)cc3)c(C(F)(F)F)[nH]c12` [Example 82, 5-Fluoro-8-propoxy-3-(4-trifluoromethoxyphenyl)-2-trifluoromethyl-1H-quinolin-4-one], for which the melting point was in the range of 143 to 144 °C.

`CCCOc1ccc(F)c2c(=O)c(-c3ccc(C(=O)OC)cc3)c[nH]c12` [Example 55, Methyl 4-(5-fluoro-4-oxo-8-propoxy-1,4-dihydroquinolin-3-yl)benzoate] displayed a melting point of 201 to 202 °C.

`CCCOc1ccc(F)c2c(=O)c(-c3ccco3)c(C(F)(F)F)[nH]c12` [Example 78, 5-Fluoro-3-furan-2-yl-8-propoxy-2-trifluoromethyl-1H-quinolin-4-one] gave a melting point of 134 to 136 °C.

`O=c1c(-c2ccc(O)cc2)c[nH]c2c(O)ccc(F)c12` [Example 96, 5-Fluoro-8-hydroxy-3-(4-hydroxyphenyl)-1H-quinolin-4-one]: the melting point is 303 to 305 °C (dec.).

The molecule `CCCOc1ccc(F)c2c(=O)c(-c3ccc(OC)cc3OC(C)C)c[nH]c12` [Example 15, 5-Fluoro-3-(2-isopropoxy-4-methoxyphenyl)-8-propoxy-1H-quinolin-4-one] registered a melting point of 204 to 206 °C.

With `COc1ccc(-c2c[nH]c3c(N4CCOCC4)ccc(F)c3c2=O)cc1` [Example 14, 5-Fluoro-3-(4-methoxyphenyl)-8-morpholin-4-yl-1H-quinolin-4-one], the melting point is 249 to 251 °C.

`CCCOc1ccc(F)c2c(=O)c(-c3cccnc3)c(C)[nH]c12` [Example 68, 5-Fluoro-2-methyl-8-propoxy-3-pyridin-3-yl-1H-quinolin-4-one] came in with a melting point of 190 to 192 °C.

With `CCCOc1ccc(F)c2c(=O)c(-c3ccc(O)cc3OC)c[nH]c12` [Example 97, 5-Fluoro-3-(4-hydroxy-2-methoxyphenyl)-8-propoxy-1H-quinolin-4-one], the melting point lay in the range of 251 to 253 °C.

`COc1ccc(-c2c[nH]c3c(OCC4CCCO4)ccc(F)c3c2=O)cc1` (stereo not shown) [Example 39, 5-Fluoro-3-(4-methoxyphenyl)-8-(tetrahydrofuran-2-ylmethoxy)-1H-quinolin-4-one] had a melting point of 108 to 110 °C.

In the case of `COc1ccc(-c2c[nH]c3c(OC(C)C)ccc(F)c3c2=O)cc1` [Example 9, 5-Fluoro-8-isopropoxy-3-(4-methoxyphenyl)-1H-quinolin-4-one], the melting point lay within 193 to 194 °C.

As for `COc1ccc(-c2c[nH]c3c(OCC(C)O)ccc(F)c3c2=O)cc1` (stereo not shown) [Example 102, 5-Fluoro-8-(2-hydroxypropoxy)-3-(4-methoxyphenyl)-1H-quinolin-4-one], the melting point is 216 to 218 °C.

Take `COc1ccc(-c2c[nH]c3c(OCCCNS(C)(=O)=O)ccc(F)c3c2=O)cc1` [Example 27, N-{3-[5-Fluoro-3-(4-methoxyphenyl)-4-oxo-1,4-dihydroquinolin-8-yloxy]propyl}methanesulfonamide]: the melting point fell in the range of 120 to 121 °C.

Consider `CCCOc1ccc(F)c2c(=O)c(-c3ccco3)c(C)[nH]c12` [Example 76, 5-Fluoro-3-furan-2-yl-2-methyl-8-propoxy-1H-quinolin-4-one], for which the melting point lay within 203 to 204 °C.

On to `COc1ccc(-c2c[nH]c3c(Br)ccc(F)c3c2=O)cc1` [Example 22, 8-Bromo-5-fluoro-3-(4-methoxyphenyl)-1H-quinolin-4-one], for which the melting point fell in the range of 134 to 135 °C.

Consider `COc1ccc(-c2c[nH]c3c(N(C)CC(C)C)ccc(F)c3c2=O)cc1` [Example 28, 5-Fluoro-8-(N-isobutyl-N-methylamino)-3-(4-methoxyphenyl)-1H-quinolin-4-one], for which the melting point lay within 144 to 145 °C.

`CCCOc1ccc(F)c2c(=O)c(-c3cccs3)c(C)[nH]c12` [Example 72, 5-Fluoro-2-methyl-8-propoxy-3-thiophen-2-yl-1H-quinolin-4-one] gave a melting point of 233 to 234 °C.

In the case of `CCCOc1ccc(F)c2c(=O)c(-c3ccncc3)c(C)[nH]c12` [Example 69, 5-Fluoro-2-methyl-8-propoxy-3-pyridin-4-yl-1H-quinolin-4-one], the melting point lay in the range of 265 to 266 °C.

`CCCOc1ccc(F)c2c(=O)c(-c3ccc(OC)cc3)c(C(C)C)[nH]c12` [Example 83, 5-Fluoro-2-isopropyl-3-(4-methoxyphenyl)-8-propoxy-1H-quinolin-4-one] displayed a melting point of 195 to 197 °C.

On to `CCOc1ccc(F)c2c(=O)c(-c3ccc(Cl)cc3Cl)c[nH]c12` [Example 13, 3-(2,4-Dichlorophenyl)-8-ethoxy-5-fluoro-1H-quinolin-4-one], for which the melting point was 236 to 237 °C.

For `CCCOc1ccc(F)c2c(=O)c(-c3ccc(OC)cc3)c(C)[nH]c12` [Example 67, 5-Fluoro-3-(4-methoxyphenyl)-2-methyl-8-propoxy-1H-quinolin-4-one], the melting point fell in the range of 211 to 212 °C.
